Usually IC50 stands for the concentration that gives 50% inhibition. Read a high IC50 as a need for much substance. A word on the EC50: it is the concentration needed to bring the measured effect to its halfway point. A low value points to greater potency.

The values that follow come from ChEMBL document CHEMBL1125527, “Disodium (R,R)-5-[2-[[2-(3-chlorophenyl)-2-hydroxyethyl]-amino] propyl]-1,3-benzodioxole-2,2-dicarboxylate (CL 316,243). A potent beta-adrenergic agonist virtually specific for beta 3 receptors. A promising antidiabetic and antiobesity agent” (J Med Chem, 1992).

For assay [1], the target named is Beta-1 adrenergic receptor (Rattus norvegicus, UniProt P18090). The experiment in a line: Compound was evaluated for its binding affinity towards Beta-1 adrenergic receptor in rat heart membrane by displacing [125I]- iodocyanopindolol. It counts as cell membranes.
Assay [2] addresses Beta-3 adrenergic receptor (Rattus norvegicus, UniProt P26255). Nature of the assay: In vitro beta-adrenergic activity against beta-3 adrenergic receptor in rat epididymal fat pads by stimulation of glycerol release from adipocytes. It counts as functional, tissue-based, Epididymal fat pad.
Assay [3] concerns the target T1, Beta-2 adrenergic receptor (Rattus norvegicus, UniProt P10608). The experiment in a line: Compound was evaluated for its binding affinity towards Beta-2 adrenergic receptor in rat soleus membrane by displacing […]. It counts as cell membranes.
Assay [4] deals with T1, Beta-2 adrenergic receptor.
Description: In vitro beta-adrenergic activity against beta-1 adrenergic receptor by the inhibition of insulin stimulated [14C]- glucose incorporation into glycogen in isolated rat soleus muscle

Each structure is given as a SMILES string.

T1 sequence (P10608 whole entry): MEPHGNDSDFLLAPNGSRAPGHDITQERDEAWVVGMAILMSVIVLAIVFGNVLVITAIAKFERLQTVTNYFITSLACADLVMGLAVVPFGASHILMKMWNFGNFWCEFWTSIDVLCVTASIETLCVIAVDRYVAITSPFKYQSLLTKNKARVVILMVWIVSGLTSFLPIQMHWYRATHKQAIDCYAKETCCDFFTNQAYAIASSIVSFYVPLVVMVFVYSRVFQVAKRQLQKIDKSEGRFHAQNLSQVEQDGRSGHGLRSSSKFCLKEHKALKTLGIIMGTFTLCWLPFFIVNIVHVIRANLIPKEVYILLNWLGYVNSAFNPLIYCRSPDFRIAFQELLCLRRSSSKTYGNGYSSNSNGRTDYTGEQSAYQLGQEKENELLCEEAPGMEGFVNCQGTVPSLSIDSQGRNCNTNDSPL
Chain of Beta-3 adrenergic receptor (P26255 whole entry): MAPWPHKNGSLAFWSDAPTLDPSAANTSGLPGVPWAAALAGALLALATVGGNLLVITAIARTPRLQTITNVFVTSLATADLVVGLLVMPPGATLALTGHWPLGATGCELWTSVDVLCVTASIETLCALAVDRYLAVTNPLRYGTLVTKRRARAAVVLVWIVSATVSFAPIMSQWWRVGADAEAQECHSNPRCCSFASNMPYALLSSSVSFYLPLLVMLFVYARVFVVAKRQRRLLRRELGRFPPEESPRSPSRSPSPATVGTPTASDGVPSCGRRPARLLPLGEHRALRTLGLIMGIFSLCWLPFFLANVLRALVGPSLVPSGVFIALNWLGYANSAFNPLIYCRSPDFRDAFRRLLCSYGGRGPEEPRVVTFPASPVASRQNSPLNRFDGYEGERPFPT
Chain of Beta-1 adrenergic receptor (P18090 whole entry): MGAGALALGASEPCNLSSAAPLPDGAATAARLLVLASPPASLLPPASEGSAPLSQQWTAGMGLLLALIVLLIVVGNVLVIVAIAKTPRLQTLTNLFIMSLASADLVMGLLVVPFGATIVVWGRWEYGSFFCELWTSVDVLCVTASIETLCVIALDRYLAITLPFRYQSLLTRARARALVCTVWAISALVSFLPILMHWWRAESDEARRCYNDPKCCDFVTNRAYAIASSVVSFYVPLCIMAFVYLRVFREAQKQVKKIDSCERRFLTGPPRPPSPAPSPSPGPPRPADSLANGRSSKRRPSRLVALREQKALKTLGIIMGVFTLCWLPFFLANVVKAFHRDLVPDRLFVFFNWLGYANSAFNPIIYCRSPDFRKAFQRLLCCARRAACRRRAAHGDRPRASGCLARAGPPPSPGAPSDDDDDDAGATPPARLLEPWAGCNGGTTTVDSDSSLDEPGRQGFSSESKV

As for `COC(=O)COc1ccc(C[C@@H](C)NC[C@H](O)c2cccc(Cl)c2)cc1`, the IC50 came to 59 nM in assay [1], 30 nM in assay [3] and 500 nM in assay [4]. In assay [2], the concentration giving a half-maximal response (EC50) is 16 nM.

As for `C[C@H](Cc1ccc(OCC(=O)O)cc1)NC[C@H](O)c1cccc(Cl)c1`, the IC50 was 1300 nM in assay [3] and 190 nM in assay [4].
